Reference: patent US8802597B2, “Herbicidal pyrimidines” (E I du Pont de Nemours and Company, priority 2003, dated 2014)

How the values were obtained:
Assay type in all cases: in vivo
[1] = system: umbrella sedge (Cyperus difformis); test: Test B flooded paddy test; settings: Flood, scale 0 to 100
Summary of the method: (§1)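 Plants were grown to the 2-leaf stage before treatment, then kept in a greenhouse for 13 to 15 days. Injury was rated visually against untreated controls on a 0 to 100 scale, where 0 is no effect and 100 is complete control.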

[2] = system: duck salad (Heteranthera limosa); test: Test B flooded paddy test; settings: Flood, scale 0 to 100
Summary of the method: as §1

[3] = system: barnyardgrass (Echinochloa crus-galli); test: Test B flooded paddy test; settings: Flood
Summary of the method: as §1

[4] = system: rice (Oryza sativa); test: Test B flooded paddy test; settings: Flood, scale 0 to 100
Summary of the method: as §1

[5] = system: morningglory (Ipomoea coccinea); test: Test B pre/postemergence
Summary of the method: (§2)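 Test chemicals in a non-phytotoxic solvent mixture with surfactant were applied preemergence to planted seeds and postemergence to plants 2 to 18 cm tall (1- to 4-leaf stage). After 13 to 15 days in a greenhouse, injury was visually rated against untreated controls on a 0 to 100 scale.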

[6] = system: cocklebur (Xanthium strumarium); test: Test B pre/postemergence
Summary of the method: as §2

[7] = system: lambsquarters (Chenopodium album); test: Test B pre/postemergence
Summary of the method: as §2

[8] = system: corn (Zea mays); test: Test B pre/postemergence
Summary of the method: as §2

[9] = system: giant foxtail (Setaria faberii); test: Test B pre/postemergence
Summary of the method: as §2

[10] = system: wheat (Triticum aestivum); test: Test B pre/postemergence
Summary of the method: as §2

[11] = system: Surinam grass (Brachiaria decumbens); test: Test B pre/postemergence
Summary of the method: as §2

[12] = system: crabgrass (Digitaria sanguinalis); test: Test B pre/postemergence
Summary of the method: as §2

[13] = system: pigweed (Amaranthus retroflexus); test: Test B pre/postemergence
Summary of the method: as §2

[14] = system: barnyardgrass (Echinochloa crus-galli); test: Test B pre/postemergence
Summary of the method: as §2

[15] = system: velvetleaf (Abutilon theophrasti); test: Test B pre/postemergence
Summary of the method: as §2

[16] = system: blackgrass (Alopecurus myosuroides); test: Test B postemergence; settings: for Blackgrass plant response rating: scale 0 to 100 (0 no effect, 100 complete control)
Summary of the method: as §2

[17] = system: wild oat (Avena fatua); test: Test B postemergence; settings: for Oat, Wild plant response rating: scale 0 to 100 (0 no effect, 100 complete control)
Summary of the method: as §2

[18] = Postemergence, 62 g ai/ha, scale 0 to 100 (0 no effect, 100 complete control)
[19] = Postemergence, 125 g ai/ha, scale 0 to 100 (0 no effect, 100 complete control)
[20] = Preemergence, 62 g ai/ha, scale 0 to 100, 0 no effect, 100 complete control
[21] = Preemergence, 125 g ai/ha, scale 0 to 100 (0 no effect, 100 complete control)
[22] = Postemergence, 500 g ai/ha, scale 0 to 100
[23] = Preemergence, 500 g ai/ha, scale 0 to 100 (0 no effect, 100 complete control)

Nc1nc(-c2ccc(Cl)cc2)nc(C(=O)[O-])c1Cl.[Na+] [Compound 117]
Plant response rating, Sedge, Umbrella ([1]; 125 g ai/ha): 80
Plant response rating, Sedge, Umbrella ([1]; 500 g ai/ha): 90
Plant response rating, Ducksalad ([2]; 125 g ai/ha): 100
Plant response rating, Ducksalad ([2]; 500 g ai/ha): 100
Plant response rating, Barnyardgrass ([3]; 125 g ai/ha, scale 0 to 100): 20
Plant response rating, Barnyardgrass ([3]; 500 g ai/ha, scale 0 to 100): 70
Plant response rating, Rice ([4]; 125 g ai/ha): 20
Plant response rating, Rice ([4]; 500 g ai/ha): 50
Morningglory plant response rating [5, 18]: 80
Morningglory plant response rating [5, 19]: 100
Plant response rating, Morningglory [5, 20]: 10
Plant response rating, Morningglory [5, 21]: 20
Cocklebur plant response rating [6, 18]: 100
Cocklebur plant response rating [6, 19]: 100
Plant response rating, Cocklebur [6, 20]: 50
Plant response rating, Cocklebur [6, 21]: 90
Lambsquarters plant response rating [7, 18]: 90
Lambsquarters plant response rating [7, 19]: 100
Plant response rating, Lambsquarters [7, 20]: 90
Plant response rating, Lambsquarters [7, 21]: 100
Corn plant response rating [8, 18]: 90
Corn plant response rating [8, 19]: 90
Plant response rating, Corn [8, 20]: 0
Plant response rating, Corn [8, 21]: 10
Foxtail, Giant plant response rating [9, 18]: 80
Foxtail, Giant plant response rating [9, 19]: 80
Plant response rating, Foxtail, Giant [9, 20]: 20
Plant response rating, Foxtail, Giant [9, 21]: 90
Wheat plant response rating [10, 18]: 50
Wheat plant response rating [10, 19]: 70
Plant response rating, Wheat [10, 20]: 50
Plant response rating, Wheat [10, 21]: 80
Surinam Grass plant response rating [11, 18]: 70
Surinam Grass plant response rating [11, 19]: 70
Plant response rating, Surinam Grass [11, 20]: 80
Plant response rating, Surinam Grass [11, 21]: 100
Crabgrass plant response rating [12, 18]: 60
Crabgrass plant response rating [12, 19]: 80
Plant response rating, Crabgrass [12, 20]: 90
Plant response rating, Crabgrass [12, 21]: 90
Pigweed plant response rating [13, 18]: 100
Pigweed plant response rating [13, 19]: 100
Plant response rating, Pigweed [13, 20]: 100
Plant response rating, Pigweed [13, 21]: 100
Barnyardgrass plant response rating [14, 18]: 90
Barnyardgrass plant response rating [14, 19]: 90
Plant response rating, Barnyardgrass [14, 20]: 10
Plant response rating, Barnyardgrass [14, 21]: 30
Velvetleaf plant response rating [15, 18]: 90
Velvetleaf plant response rating [15, 19]: 100
Plant response rating, Velvetleaf [15, 20]: 70
Plant response rating, Velvetleaf [15, 21]: 90
Blackgrass plant response rating ([16]; 62 g ai/ha): 60
Blackgrass plant response rating ([16]; 125 g ai/ha): 70
Oat, Wild plant response rating ([17]; 62 g ai/ha): 30
Oat, Wild plant response rating ([17]; 125 g ai/ha): 50

CC(C)COC(=O)c1nc(C2CC2)nc(N)c1Br [Compound 17]
Plant response rating, Sedge, Umbrella ([1]; 1000 g ai/ha): 50
Plant response rating, Ducksalad ([2]; 1000 g ai/ha): 90
Plant response rating, Barnyardgrass ([3]; 1000 g ai/ha, scale 0 (no effect) to 100 (complete control)): 80
Plant response rating, Rice ([4]; 1000 g ai/ha): 50
Morningglory plant response rating [5, 19]: 100
Plant response rating, Morningglory [5, 22]: 100
Plant response rating, Morningglory [5, 21]: 100
Morningglory plant response rating [5, 23]: 100
Cocklebur plant response rating [6, 19]: 100
Plant response rating, Cocklebur [6, 22]: 100
Plant response rating, Cocklebur [6, 21]: 80
Cocklebur plant response rating [6, 23]: 90
Lambsquarters plant response rating [7, 19]: 100
Plant response rating, Lambsquarters [7, 22]: 100
Plant response rating, Lambsquarters [7, 21]: 90
Lambsquarters plant response rating [7, 23]: 100
Corn plant response rating [8, 19]: 0
Plant response rating, Corn [8, 22]: 80
Plant response rating, Corn [8, 21]: 0
Corn plant response rating [8, 23]: 60
Foxtail, Giant plant response rating [9, 19]: 10
Plant response rating, Foxtail, Giant [9, 22]: 70
Plant response rating, Foxtail, Giant [9, 21]: 20
Foxtail, Giant plant response rating [9, 23]: 70
Wheat plant response rating [10, 19]: 0
Plant response rating, Wheat [10, 22]: 60
Plant response rating, Wheat [10, 21]: 40
Wheat plant response rating [10, 23]: 60
Surinam Grass plant response rating [11, 19]: 30
Plant response rating, Surinam Grass [11, 22]: 80
Plant response rating, Surinam Grass [11, 21]: 30
Surinam Grass plant response rating [11, 23]: 90
Crabgrass plant response rating [12, 19]: 20
Plant response rating, Crabgrass [12, 22]: 50
Plant response rating, Crabgrass [12, 21]: 70
Crabgrass plant response rating [12, 23]: 100
Pigweed plant response rating [13, 19]: 70
Plant response rating, Pigweed [13, 22]: 90
Plant response rating, Pigweed [13, 21]: 80
Pigweed plant response rating [13, 23]: 100
Barnyardgrass plant response rating [14, 19]: 20
Plant response rating, Barnyardgrass [14, 22]: 90
Plant response rating, Barnyardgrass [14, 21]: 20
Barnyardgrass plant response rating [14, 23]: 80
Velvetleaf plant response rating [15, 19]: 60
Plant response rating, Velvetleaf [15, 22]: 100
Plant response rating, Velvetleaf [15, 21]: 70
Velvetleaf plant response rating [15, 23]: 90
Blackgrass plant response rating ([16]; 125 g ai/ha): 0
Plant response rating, Blackgrass ([16]; 500 g ai/ha, scale 0 to 100): 70
Oat, Wild plant response rating ([17]; 125 g ai/ha): 0
Plant response rating, Oat, Wild ([17]; 500 g ai/ha, scale 0 to 100): 50
